Results: patent publication US20150359815A1, “PAK1 INHIBITION FOR TREATMENT OF ACUTE MYELOID LEUKEMIA AND MYELODYSPLASTIC SYNDROMES” (ALBERT EINSTEIN COLLEGE OF MEDICINE OF YESHIVA UNIVERSITY, priority 2013, published 2015)

Legend:
[1] = tested on: HL60 AML cells; assay: Cell proliferation assay, HL60 AML cells; format: cell-based, human; settings: FIG. 2, FIG. 3
Description: (§1) Cell proliferation, cell cycle, and apoptosis assays. For cell proliferation assays, manual cell counts were performed by culturing cells in 24- or 48-well plates. Viable cells were counted using trypan blue exclusion and cell density was re-adjusted in each well every 3-5 days. For cell cycle assays, the Click-iT™ EdU Flow Cytometry Assay system (Invitrogen) was used following the manufacturer's instructions. For apoptosis assays, apoptotic and necrotic cells were analyzed by use of Annexin V/DAPI staining.

[2] = tested on: THP1 AML cells; assay: Cell proliferation assay, THP1 AML cells; format: cell-based, human; settings: FIG. 2, FIG. 7
Description: as §1

[3] = tested on: KG1a AML cells; assay: Cell proliferation assay, KG1a AML cells; format: cell-based, human; settings: FIG. 2
Description: as §1

[4] = tested on: MOLM13; assay: Cell proliferation assay, MOLM13 AML cells; format: cell-based, human; settings: FIG. 2
Description: as §1

[5] = tested on: AML cells; assay: Colony formation assay, AML cells; format: cell-based; settings: FIG. 4
Description: (§2) Colony, formation assays and serial replating assays. Assays were performed in MethoCult M3434 (Stern Cell Technologies, Vancouver, BC) containing IL-3, IL-6, SCF, and EPO or in MethoCult M3234 supplemented with M-CSF or GM-CSF as previously described (Higuchi et al, 2002; Huntly et al, 2004;Will et al, 2009). GFP+ colonies were scored 8-10 days after plating using an AXIOVERT 200M microscope (Zeiss, Maple Grove, Minn.). After scoring, GFP+ cells were re-sorted after each round and then serial replating assays were carried out. Cells were replated and colonies were again scored after 10-14 days.

[6] = tested on: AML and MDS cells isolated from the bone marrow of AML and MDS patients; assay: Growth of primary patient AML/MDS cells versus healthy donor hematopoietic cells; format: cell-based, human; settings: primary bone marrow and peripheral blood samples; *p<0.05, **p<0.01; FIG. 5
Description: The experiments illustrated in FIG. 5 were performed using primary bone marrow and peripheral blood samples given by healthy donors and by patients with acute myeloid leukemia.

[7] = tested on: AML cells; assay: Apoptosis assay (Annexin V/DAPI), AML cells; format: cell-based; settings: 24 hours of incubation, FIG. 6
Description: FIG. 6. […] 24 hours of incubation with Compound 1 (assay by Annexin V/DAPI), Black—Percentage of live cells; Grey—Percentage of apoptotic cells.
as §1

[8] = tested on: cells from a patient with myelodysplastic syndrome (MDS); assay: Colony formation of cells from a patient with myelodysplastic syndrome; format: cell-based, human; settings: FIG. 8
Description: FIG. 8. Compound 1-mediated inhibition of PAK1: effects on colony formation of cells from a patient with myelodysplastic syndrome (MDS). Inhibition of PAKI is effective in both myelodysplastic syndrome (MDS) and acute myeloid leukemia (AML).
as §2
FIG. 8 illustrates Compound 1-mediated inhibition of PAK1 effects on colony formation of cells from a patient with myelodysplastic syndrome (MDS) Inhibition of PAK1 is effective in both myelodysplastic syndrome (MDS) and acute myeloid leukemia (AML). See also FIG. 5.

[9] = tested on: downstream signaling pathways of PAK1; assay: Phosphorylation status of kinases in THP1 leukemia cells; format: cell-based, human; settings: 4 hours, 6 μg/ml IPA-3 vs DMSO, FIG. 9
Text: FIG. 9. Effect of Compound 1 (IPA-3) on downstream signaling pathways of PAKI.
(§3) In contrast, STAT4 expression is increased upon treatment with Compound 1 or PAK1 shRNA knockdown in THP1 cells (FIG. 10).

[10] = tested on: STAT4; assay: STAT4 expression in THP1 cells (Western Blot, qRT-PCR); format: cell-based, human; settings: FIG. 10
Description: FIG. 10A-10B. STAT4 expression is increased upon treatment with Compound 1 (IPA-3) or PAKI shRNA knockdown in THP1 cells. A) Western Blot; B) qRT-PCR.
Quantitative real-time PCR. Total RNA was extracted from FACS-sorted cells or cultured cells using RNeasy Micro kit (Qiagen, Valencia, Calif.). cDNA was synthesized by Superscript II reverse transcriptase (Invitrogen, Carlsbad, Calif.). Real-time PCR was performed using an iQ5 real-time PCR detection system (BIO-RAD, Hercules, Calif.) with 1 cycle of 50° C. (2 min) and 95° C. (10 min) followed by 40 cycles of 95° C. (15 sec) and 60° C. (1 min) using Power SYBR Green PCR master mix (AB, Carlsbad, Calif.).
Western blotting. Total cell lysates were extracted in lysis buffer (50 mM Tris-Cl (pH 7.5), 1 mM EDTA, 150 mM NaCl, 1%NP-40, 1% sodium deoxycholate, 1 mM PMSF, and protease inhibitor (Roche)). Anti-Hlx polyclonal rabbit antibody (SantaCruz, clone H-130, sc-135014) and anti-actin polyclonal goat antibody (Santa Cruz, clone C-11, sc1615) were used as primary antibodies, […] anti-rabbit or anti-goat antibody (Santa Cruz) were used as secondary antibodies. ECL solution (Pierce) was used for detection.
as §3

[11] = tested on: THP1 AML cells; assay: Survival of mice injected with THP1 cells expressing PAK1 shRNA; format: in vivo; settings: for liver infiltration of leukemia cells: animals receiving THP1 with shRNA vs control cells, not illustrated; for survival of mice: mice injected with 300,000 THP1 cells expressing shRNA, vs non-silencing control shRNA, FIG. 12B
Description: FIG. 12A-12B, Evaluation of PAK1 expression reduction in THP1 AML cells by shRNAs, A) Evaluated mRNA levels by RT-gPCR.
The effects on survival of reduced PAK1 expression in THP1 AML cells when expression was reduced by shRNAs was evaluated in mice.

Which “proliferation of HL60 AML cells” value [1] does the source give for `Oc1ccc2ccccc2c1SSc1c(O)ccc2ccccc12` [Compound 1, 1,1′-Disulfanediyldinaphthalen-2-ol] here?
The value was “reduces proliferation”.

What about the “proliferation of THP1 AML cells” value [2] of the same compound?
Its value is “reduces proliferation”.

What about the “proliferation of KG1a AML cells” value [3] of the same compound?
The value was “reduces proliferation”.

What about the “proliferation of MOLM13 AML cells” value [4] of the same compound?
The value was “reduces proliferation”.

And the “colony formation ability of AML cells” value [5]?
Its value is “reduces colony formation ability”.

What about the “effect on growth of AML and MDS patient cells compared with healthy hematopoietic cells” value [6] of the same compound?
The value was “greater effect”.

What about the “apoptosis in AML cells” value [7] of the same compound?
The value was “induces apoptosis”.

What about the “colony formation of cells from a patient with MDS” value [8] of the same compound?
Its value is “effective”.

What about the “several additional oncogenic signaling pathways (kinase phosphorylation status)” value [9] of the same compound?
Its value is “significantly inhibited”.

What about the STAT4 expression [10] of the same compound?
The STAT4 expression was “increased”.

`Cc1nc(Nc2n[nH]c3c2CN(C(=O)N[C@H](CN(C)C)c2ccccc2)C3(C)C)c2sccc2n1` [Compound 2, (S)-N-(2-(dimethylamino)-1-phenylethyl)-6,6-dimethyl-3-((2-methylthieno[3,2-d]pyrimidin-4-yl)amino)-4,6-dihydropyrrolo[3,4-c]pyrazole-5(1H)-carboxamide] was tested. Which “proliferation of THP1 AML cells” value [2] did it give?
The value was “reduces proliferation”.

Which “liver infiltration of leukemia cells” value [11] does the source give for “shRNA #1: short hairpin sequence for human PAK1, CGATGAGAAATACCAGCACTA, expressed by lentivirus (the letters are possibly those of the target site)” here?
Its value is “Significantly less liver infiltration of leukemia cells”.

What about the survival of mice [11] of the same compound?
Its survival of mice is “Significant prolongation of survival”.

For “shRNA #2: short hairpin sequence for human PAK1, GCGATCCTAAGAAGAAATATA, expressed by lentivirus (the letters are possibly those of the target site)”, which “liver infiltration of leukemia cells” value [11] is on record?
Its value is “Significantly less liver infiltration of leukemia cells”.

What about the “long-term survival of some mice” value ([11]; entire duration of the assay (90 days)) of the same compound?
The value was “long-term survival”.

What about the survival of mice [11] of the same compound?
The survival of mice was “Significant prolongation of survival”.
